Test in all cases: growth of human tumour cells (NCI), 48 h
Assay [1] relates to 786-0.
Assay [2] concerns A549.
The subject of assay [3] is CCRF-CEM.
Assay [4] deals with EKVX.
For assay [5], the system named is HCT-15.
Assay [6] concerns HOP-62.
Assay [7] concerns K562.
Assay [8] deals with KM12.
The test system of assay [9] is LOX IMVI.
In assay [10] the test system is MCF7.
Assay [11] relates to MDA-MB-231.
Assay [12] concerns Malme-3M.
The test system of assay [13] is NCI-H226.
Assay [14] has as its system NCI-H460.
The test system of assay [15] is RPMI-8226.
Assay [16] relates to SF-539.
For assay [17], the system named is SK-MEL-28.
Assay [18] relates to SK-OV-3.
For assay [19], the system named is SN12C.
Assay [20] has as its system SW-620.

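Five concentrations, 48 hours, 96-well plates. The concentration for 50% growth inhibition is given as GI50.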 Active and inactive are the calls of the source. Cut-off read from the data, not from the text of the source: active = GI50 up to about 1.1 µM and inactive = higher.

On to `CC1(C)N=C(/C(C#N)=[N+](/[O-])C(=O)c2ccccc2)C(C)(C)N1O`, for which the GI50 was > 100 µM (inactive) in assay [1]; > 100 µM (inactive) in assay [2]; > 100 µM (inactive) in assay [3]; > 100 µM (inactive) in [4]; over 100 µM in assay [5]; > 100 µM (inactive) in assay [6]. In addition, the GI50 in assay [7], in assay [8], in assay [9], in assay [10], in assay [11] and in [12] was > 100 µM (inactive) in each case. Moreover, the GI50 in assay [13], in [14], in assay [15], in [16], in assay [17] and in [18] was > 100 µM (inactive) each time. The GI50 in [19] and in assay [20] was > 100 µM (inactive) each time.
On to `COc1ccc(N2C(=O)/C(=C\c3cc(OC)c(OC)c(OC)c3)SC2c2ccccc2)cc1` (stereo not drawn), for which the GI50 in [1] was > 100 µM (inactive); in [2], > 100 µM (inactive); in assay [3] it was 21.2 µM (inactive); in assay [4], 83.9 µM (inactive); in assay [5], 58.2 µM; in [6], > 100 µM (inactive). For the same compound, the GI50 in assay [7] was 38.3 µM (inactive); in [8], 51.6 µM (inactive); in [9], 29.6 µM (inactive); in assay [10], 44.2 µM (inactive); in assay [11] it was > 100 µM (inactive); in assay [12], 54.6 µM (inactive). For the same compound, the GI50 in [13] was > 100 µM (inactive); in assay [14], 67 µM (inactive); in assay [15] it was 31.3 µM (inactive); in assay [16], > 100 µM (inactive); in [17] it was > 100 µM (inactive); in assay [18] it was 81.7 µM (inactive). Also, the GI50 in [19] and in assay [20] was > 100 µM (inactive) throughout.
On to `C=C1C(=O)O[C@H]2[C@@H]3O[C@@](C)(CC/C=C(\C)CCC[C@@H]2C)[C@H](O)C[C@@H]13`, for which the GI50 was 2.75 µM (inactive) in assay [1]; 6.79 µM (inactive) in assay [2]; 10.2 µM (inactive) in assay [3]; 22.9 µM (inactive) in assay [4]; 2.56 µM in assay [5]; 10.5 µM (inactive) in [6]. The GI50 in assay [7] was 1.25 µM (inactive); in assay [8], 10.8 µM (inactive); in assay [9] it was 2.86 µM (inactive); in assay [10], 2.08 µM (inactive); in [11], 5.3 µM (inactive); in [12], 6.32 µM (inactive). Besides, the GI50 in assay [13] was 2.11 µM (inactive); in assay [14] it was 2.99 µM (inactive); in assay [15], 2.25 µM (inactive); in assay [16], 2.14 µM (inactive); in [17], 7.31 µM (inactive); in assay [18], 17.6 µM (inactive). Besides, the results for the GI50 in [19] and in [20] were 2.28 µM (inactive) and 7.96 µM (inactive), respectively.
Consider `COc1ccccc1-n1nnc2c(N)nc(N)nc21`, for which the GI50 in [1] is > 100 µM (inactive); in [2], > 100 µM (inactive); in [3], > 100 µM (inactive); in assay [4] it was > 100 µM (inactive); in assay [5] it was over 100 µM; in [6], > 100 µM (inactive). Besides, the GI50 in [7], in assay [8], in assay [9], in assay [10], in assay [11] and in assay [12] was > 100 µM (inactive) each time. For the same compound, the GI50 in assay [13], in [14], in [15], in assay [16], in [17] and in assay [18] was > 100 µM (inactive) each time. Further, the GI50 in assay [19] and in [20] was > 100 µM (inactive) throughout.
Turning to `Cc1ccccc1OC(C)C(=O)NN1C(=O)CC(=O)N(c2ccc(Cl)cc2)C1=S` (stereo not drawn), the GI50 is 34 µM (inactive) in assay [1]; 43.9 µM (inactive) in assay [2]; 19.3 µM (inactive) in assay [3]; 41.7 µM (inactive) in assay [4]; 30.1 µM in assay [5]; 47.9 µM (inactive) in assay [6]. Moreover, the GI50 in [7] is 38.6 µM (inactive); in assay [8], 36.3 µM (inactive); in assay [9], 29 µM (inactive); in [10], 31.3 µM (inactive); in assay [11], 26 µM (inactive); in assay [12], 48.2 µM (inactive). In addition, the GI50 is 31.5 µM (inactive) in assay [13]; 31 µM (inactive) in assay [14]; 34.4 µM (inactive) in assay [15]; 46.1 µM (inactive) in assay [16]; 41.4 µM (inactive) in assay [17]; 48.2 µM (inactive) in assay [18]. The GI50 in [19] is 34.3 µM (inactive); in assay [20] it was 36.2 µM (inactive).
As to `OCCCCn1cc(Cn2ncc3c(NCc4ccccc4)ncnc32)nn1`, the GI50 in [1] is > 100 µM (inactive); in assay [2], > 100 µM (inactive); in assay [3] it was > 100 µM (inactive); in assay [4], > 100 µM (inactive); in [5] it was over 100 µM; in assay [6], > 100 µM (inactive). Further, the GI50 was 44.3 µM (inactive) in assay [7]; > 100 µM (inactive) in assay [8]; > 100 µM (inactive) in assay [9]; > 100 µM (inactive) in assay [10]; > 100 µM (inactive) in assay [11]; > 100 µM (inactive) in [12]. For the same compound, the GI50 in assay [13], in assay [14], in assay [15], in [16], in assay [17] and in assay [18] was > 100 µM (inactive) in each case. Besides, the GI50 in assay [19] and in assay [20] was > 100 µM (inactive) in each case.
Take `N#CCC(=O)N/N=C(\CCN1CCCC1)CC(c1ccccc1)c1c(O)c2ccccc2oc1=O` (stereo not drawn): the GI50 was > 100 µM (inactive) in assay [1]; > 71.9 µM (inactive) in assay [2]; 39.4 µM (inactive) in [3]; > 100 µM (inactive) in assay [4]; over 67.5 µM in assay [5]; > 100 µM (inactive) in assay [6]. Further, the GI50 is 62.1 µM (inactive) in assay [7]; > 63.7 µM (inactive) in assay [8]; > 41.3 µM (inactive) in assay [9]; 20.2 µM (inactive) in [10]; 40.3 µM (inactive) in [11]; 60 µM (inactive) in [12]. Further, the GI50 in assay [13] was > 89.5 µM (inactive); in [14], > 100 µM (inactive); in assay [15], 32.9 µM (inactive); in [16] it was > 88.5 µM (inactive); in [17], > 100 µM (inactive); in [18], > 86.9 µM (inactive). Moreover, the GI50 in [19] is > 100 µM (inactive); in assay [20], > 58.2 µM (inactive).
As for `S=C(NN=C1NCCCCN1)Nc1ccccc1`, the GI50 in assay [1] is 39 µM (inactive); in [2], 34.8 µM (inactive); in assay [3], 19.8 µM (inactive); in assay [4] it was 66.4 µM (inactive); in assay [5], 37.4 µM; in assay [6], 68.9 µM (inactive). The GI50 in assay [7] was 31.6 µM (inactive); in assay [8], 37.2 µM (inactive); in assay [9], 26.6 µM (inactive); in [10], 31.2 µM (inactive); in assay [11], > 100 µM (inactive); in assay [12] it was > 100 µM (inactive). Further, the GI50 in assay [13] was > 100 µM (inactive); in assay [14], 37.2 µM (inactive); in assay [15], 9.93 µM (inactive); in assay [16], > 100 µM (inactive); in [17], 35.5 µM (inactive); in [18], 79.8 µM (inactive). Also, the GI50 in [19] is > 100 µM (inactive).
On to `CC(=O)Oc1ccc2c(c1)c1c(=O)oc(C)nc1n2Cc1ccccc1`, for which the GI50 in [1] was 39.6 µM (inactive); in assay [2], 67.5 µM (inactive); in assay [3] it was > 64.3 µM (inactive); in [4], > 53.5 µM (inactive); in [5] it was 26.7 µM; in [6], 32.7 µM (inactive). The GI50 in assay [7] is 50.8 µM (inactive); in [8], 23.6 µM (inactive); in assay [9], 32 µM (inactive); in assay [10] it was 47.8 µM (inactive); in [11], 33.7 µM (inactive); in assay [12], 73.6 µM (inactive). For the same compound, the GI50 in assay [13] was 24.8 µM (inactive); in [14], > 65.2 µM (inactive); in assay [15] it was 56.4 µM (inactive); in assay [16] it was 27.5 µM (inactive); in assay [17] it was 46.2 µM (inactive); in [18] it was 28.7 µM (inactive). Further, the GI50 in [19] was 66.8 µM (inactive); in assay [20], 57.9 µM (inactive).
On to `O=C(NNC(=S)NC1CCCCC1)C12CC3CC(CC(C3)C1)C2`, for which the GI50 is 61.8 µM (inactive) in assay [1]; > 100 µM (inactive) in assay [2]; > 100 µM (inactive) in [3]; over 100 µM in assay [5]; > 100 µM (inactive) in [6]; > 100 µM (inactive) in assay [7]. Also, the GI50 in assay [8], in assay [9], in assay [10], in [11], in assay [12] and in assay [13] was > 100 µM (inactive) each time. Besides, the GI50 in assay [14], in assay [15], in assay [16], in assay [17], in assay [18] and in [19] was > 100 µM (inactive) throughout. Moreover, the GI50 in assay [20] was > 100 µM (inactive).
